We go through one molecule from article PMC4350841 (2015).

Assay [1] concerns U-insertion gRNA/pre-mRNA hybrid RNA (pre-cleaved) (RNA, duplex, 3'-end amino modification in two of the oligoribonucleotides used (which ones stated only in S1 Table)) GGAAGUAUGAGACGUAGG/AUUGGAGUUAUAG/CUAUAACUCCGAUAAACCUACGUCUCAUACUUCC
Briefly: UV melting, 260 nm. The conditions noted are these: Na+ (5 mM Na cacodylate; NaCl not stated); pH 6.8; 1 μM RNA; neomycin 1.3 μM or 13 μM; two helices; 11–13 over both RNAs.

Assay [2] relates to U-deletion gRNA/pre-mRNA hybrid RNA (pre-cleaved) (RNA, duplex, 3'-end amino modification in two of the oligoribonucleotides used (which ones stated only in S1 Table)) GGAAAGGGAAAGUUGUGAUUUU/GCGAGUUAUAGAAUA/GGUUCUAUAACUCGCUCACAACUUUCCCUUUCC
As to the kind of experiment: circular dichroism titration, 273 nm. Particulars: Na+ (65 mM NaCl, 10 mM Na cacodylate); pH 6.8, 27°C; 12 μM RNA; neomycin up to 0.6 mM; A-form retained.

In assay [3] the test system is U-insertion gRNA/pre-mRNA hybrid RNA (pre-cleaved) (RNA, duplex, 3'-end amino modification in two of the oligoribonucleotides used (which ones stated only in S1 Table)) GGAAGUAUGAGACGUAGG/AUUGGAGUUAUAG/CUAUAACUCCGAUAAACCUACGUCUCAUACUUCC
As to the kind of experiment: isothermal titration calorimetry. Particulars: 30 mM KCl, 10 mM Mg(OAc)2; 20 mM HEPES/KOH pH 7.5, 0.5 mM DTT, 27°C; 2 μM RNA; macroscopic, 3 sites.

Assay [4] relates to U-deletion gRNA/pre-mRNA hybrid RNA (pre-cleaved) (RNA, duplex, 3'-end amino modification in two of the oligoribonucleotides used (which ones stated only in S1 Table)) GGAAAGGGAAAGUUGUGAUUUU/GCGAGUUAUAGAAUA/GGUUCUAUAACUCGCUCACAACUUUCCCUUUCC
As to the kind of experiment: UV melting, 260 nm. Particulars: Na+ (5 mM Na cacodylate; NaCl not stated); pH 6.8; 1 μM RNA; neomycin 1.3 μM or 13 μM; two helices; 11–13 over both RNAs.

Assay [5] shares this test system. As to the kind of experiment: isothermal titration calorimetry. The conditions noted are these: 30 mM KCl, 10 mM Mg(OAc)2; 20 mM HEPES/KOH pH 7.5, 0.5 mM DTT, 27°C; 2 μM RNA; macroscopic, 3 sites.
Assay [6] relates to U-insertion gRNA/pre-mRNA hybrid RNA (pre-cleaved) (RNA, duplex, 3'-end amino modification in two of the oligoribonucleotides used (which ones stated only in S1 Table)) GGAAGUAUGAGACGUAGG/AUUGGAGUUAUAG/CUAUAACUCCGAUAAACCUACGUCUCAUACUUCC
As to the kind of experiment: circular dichroism titration, 273 nm. Particulars: Na+ (65 mM NaCl, 10 mM Na cacodylate); pH 6.8, 27°C; 12 μM RNA; neomycin up to 0.6 mM; A-form retained.

In the case of `NC[C@@H]1O[C@H](O[C@H]2[C@@H](O)[C@H](O[C@@H]3[C@@H](O)[C@H](N)C[C@H](N)[C@H]3O[C@H]3O[C@H](CN)[C@@H](O)[C@H](O)[C@H]3N)O[C@@H]2CO)[C@H](N)[C@@H](O)[C@@H]1O`, the binding result in assay [1], in assay [2], in assay [4] and in assay [6] was “yes” each time. Moreover, the Kd in assay [3] is 1100 nM; in assay [5], 1000 nM.
